Measured values from ChEMBL document CHEMBL1759903, “Pentacycloundecane-based inhibitors of wild-type C-South African HIV-protease” (Bioorg Med Chem Lett, 2011).
Peptide text beside a SMILES is read from it. * marks the point of attachment. X1 = Oc1cccc(N*)c1

biological target: Protease (Human immunodeficiency virus 1, UniProt Q9YQ12); experiment: Inhibition of HIV1 subtype C protease expressed in Escherichia coli BL21 assessed as hydrolysis of substrate using chromogenic substrate Lys-Ala-Arg-Val-Nle-p-nitro-Phe-Glu-Ala-Nle-NH2 by spectrophotometric analysis
Sequence (Q9YQ12 whole entry): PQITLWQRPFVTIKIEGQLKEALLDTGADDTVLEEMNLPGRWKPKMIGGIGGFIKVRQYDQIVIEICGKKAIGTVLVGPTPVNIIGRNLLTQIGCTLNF

Structure (SMILES) | IC50 [nM]
CC[C@H](C)[C@H](NC(=O)[C@@H](N)CO)C(=O)N[C@@H](C)C(=O)N[C@@]12NC(=O)[C@]3(O)C4C5CC(C6C5C3C61)C42 (some centres undefined) | 10000
CC[C@H](C)[C@H](NC(=O)[C@@H](N)CO)C(=O)N[C@@H](C)C(=O)N[C@@H](CCC(=O)O)C(=O)Nc1cccc(O)c1 (H-SIAE-X1) | 10000
CC[C@H](C)[C@H](NC(=O)[C@@H](N)CO)C(=O)N[C@@H](C)C(=O)N[C@@H](CCC(=O)O)C(=O)NC12NC(=O)C3(O)C4C5CC(C6C5C3C61)C42 (mixture of isomers) | 78
CC[C@H](C)[C@H](NC(=O)[C@@H](N)CO)C(=O)N[C@@H](C)C(=O)N[C@@H](CCC(=O)O)C(=O)NC12NC(=O)C3(OC(C)=O)C4C5CC(C6C5C3C61)C42 (mixture of isomers) | > 10000
CC[C@H](C)[C@H](NC(=O)[C@@H](N)CO)C(=O)N[C@@H](C)C(=O)N[C@@H](CCC(N)=O)C(=O)NC12NC(=O)C3(O)C4C5CC(C6C5C3C61)C42 (mixture of isomers) | 5000

Other lines, results leading:

IC50 [nM] | Structure (SMILES)
500 | CC[C@H](C)[C@H](NC(=O)[C@@H](N)CO)C(=O)N[C@@H](C)C(=O)N[C@]12NC(=O)[C@@]3(O)C4C5CC(C6C5C3C61)C42 (some centres undefined)
500 | CC[C@H](C)[C@H](N)C(=O)N[C@@H](C)C(=O)N[C@@H](CCC(=O)O)C(=O)NC12NC(=O)C3(O)C4C5CC(C6C5C3C61)C42 (mixture of isomers)
2000 | CC[C@H](C)[C@H](NC(=O)[C@@H](N)CO)C(=O)N[C@H](C(=O)N[C@@H](CCC(=O)O)C(=O)NC12NC(=O)C3(O)C4C5CC(C6C5C3C61)C42)C(C)C (mixture of isomers)
4 | COC(=O)N[C@H](C(=O)N[C@@H](Cc1ccccc1)[C@@H](O)CN(Cc1ccc(-c2ccccn2)cc1)NC(=O)[C@@H](NC(=O)OC)C(C)(C)C)C(C)(C)C [ATAZANAVIR]
